Data reported in paper PMC8364686, “Safety, tolerability, pharmacokinetics and pharmacodynamics of single oral doses of BI 187004, an inhibitor of 11beta-hydroxysteroid dehydrogenase-1, in healthy male volunteers with overweight or obesity” (Clinical Diabetes and Endocrinology, 2021).

Assay: Plasma pharmacokinetics of BI 187004 after single oral doses (LC–MS/MS)
Conditions: male, human, plasma, po; for concentration at 10 h: planned time 10 h; for concentration at 12 h: planned time 12 h; for concentration at 36 h: planned time 36 h; for concentration at 48 h: planned time 48 h; for concentration at 72 h: planned time 72 h; for concentration at 96 h: planned time 96 h; for concentration at 0.5 h: planned time 0.5 h; for concentration at 1 h: planned time 1 h; for concentration at 1.5 h: planned time 1.5 h; for concentration at 2 h: planned time 2 h; for concentration at 2.5 h: planned time 2.5 h; for concentration at 3 h: planned time 3 h; for concentration at 4 h: planned time 4 h; for concentration at 5 h: planned time 5 h; for concentration at 6 h: planned time 6 h; for concentration at 8 h: planned time 8 h
[1] = 40 mg, BI 187004 plasma concentrations, 40 mg single oral, Max
[2] = 40 mg, BI 187004 plasma concentrations, 40 mg single oral, Mean
[3] = 40 mg, BI 187004 plasma concentrations, 40 mg single oral, Median
[4] = 40 mg, BI 187004 plasma concentrations, 40 mg single oral, Min
[5] = 40 mg, BI 187004 plasma concentrations, 40 mg single oral, gMean
[6] = 80 mg, BI 187004 plasma concentrations, 80 mg single oral, Max
[7] = 80 mg, BI 187004 plasma concentrations, 80 mg single oral, Mean
[8] = 80 mg, BI 187004 plasma concentrations, 80 mg single oral, Median
[9] = 80 mg, BI 187004 plasma concentrations, 80 mg single oral, Min
[10] = 80 mg, BI 187004 plasma concentrations, 80 mg single oral, gMean
[11] = 160 mg, BI 187004 plasma concentrations, 160 mg single oral, Max
[12] = 160 mg, BI 187004 plasma concentrations, 160 mg single oral, Mean
[13] = 160 mg, BI 187004 plasma concentrations, 160 mg single oral, Median
[14] = 160 mg, BI 187004 plasma concentrations, 160 mg single oral, Min
[15] = 160 mg, BI 187004 plasma concentrations, 160 mg single oral, gMean
[16] = 160 mg, BI 187004 plasma concentrations, 160 mg single oral, individual subjects

## N#Cc1ccc2c(c1)[C@H]1CCCN(C(=O)c3ccc4[nH]cnc4c3)[C@H]1C2 [BI 187004]
[1]
  concentration at 10 h: 1140 nM
  concentration at 12 h: 984 nM
  concentration at 36 h: 377 nM
  concentration at 48 h: 234 nM
  concentration at 72 h: 83.4 nM
  concentration at 96 h: 41.4 nM
[2]
  concentration at 10 h: 825 nM
  concentration at 12 h: 683 nM
  concentration at 36 h: 163 nM
  concentration at 48 h: 95.6 nM
  concentration at 72 h: 32 nM
  concentration at 96 h: 15.5 nM
[3]
  concentration at 10 h: 815 nM
  concentration at 12 h: 690 nM
  concentration at 36 h: 119 nM
  concentration at 48 h: 66.2 nM
  concentration at 72 h: 22.1 nM
  concentration at 96 h: 11.1 nM
[4]
  concentration at 10 h: 467 nM
  concentration at 12 h: 359 nM
  concentration at 36 h: 51.5 nM
  concentration at 48 h: 30.8 nM
  concentration at 72 h: 8.48 nM
  concentration at 96 h: 5.05 nM
[5]
  concentration at 10 h: 796 nM
  concentration at 12 h: 650 nM
  concentration at 36 h: 129 nM
  concentration at 48 h: 73 nM
  concentration at 72 h: 24.3 nM
  concentration at 96 h: 12.2 nM
40 mg, BI 187004 plasma concentrations, 40 mg single oral, planned time 24 h, Max
  concentration at 24 h: 625 nM
40 mg, BI 187004 plasma concentrations, 40 mg single oral, planned time 24 h, Mean
  concentration at 24 h: 353 nM
40 mg, BI 187004 plasma concentrations, 40 mg single oral, planned time 24 h, Median
  concentration at 24 h: 335 nM
40 mg, BI 187004 plasma concentrations, 40 mg single oral, planned time 24 h, Min
  concentration at 24 h: 169 nM
40 mg, BI 187004 plasma concentrations, 40 mg single oral, planned time 24 h, gMean
  concentration at 24 h: 321 nM
40 mg, C24 gMean (%gCV), 40 mg single oral dose
  concentration at 24 h: 321 nM
80 mg
  AUC(0-inf): 51.1 µM·h
  AUC(0-t): 43.1 µM·h
  Cmax: 2460 nM
  Tmax: 2.25 h
  Vd/F: 113 L
  half-life: 17.1 h
[6]
  concentration at 0.5 h: 4480 nM
  concentration at 1 h: 4770 nM
  concentration at 1.5 h: 4150 nM
  concentration at 2 h: 3590 nM
  concentration at 2.5 h: 3200 nM
  concentration at 3 h: 3340 nM
  concentration at 4 h: 3200 nM
  concentration at 5 h: 3210 nM
  concentration at 6 h: 2460 nM
  concentration at 8 h: 2840 nM
  concentration at 10 h: 2570 nM
  concentration at 12 h: 2210 nM
  concentration at 36 h: 678 nM
  concentration at 48 h: 596 nM
  concentration at 72 h: 234 nM
  concentration at 96 h: 110 nM
[7]
  concentration at 0.5 h: 1780 nM
  concentration at 1 h: 2490 nM
  concentration at 1.5 h: 2500 nM
  concentration at 2 h: 2330 nM
  concentration at 2.5 h: 2350 nM
  concentration at 3 h: 2240 nM
  concentration at 4 h: 2200 nM
  concentration at 5 h: 1980 nM
  concentration at 6 h: 1740 nM
  concentration at 8 h: 1820 nM
  concentration at 10 h: 1600 nM
  concentration at 12 h: 1380 nM
  concentration at 36 h: 411 nM
  concentration at 48 h: 281 nM
  concentration at 72 h: 90 nM
  concentration at 96 h: 44.9 nM
[8]
  concentration at 0.5 h: 1020 nM
  concentration at 1 h: 2300 nM
  concentration at 1.5 h: 2540 nM
  concentration at 2 h: 2400 nM
  concentration at 2.5 h: 2650 nM
  concentration at 3 h: 2470 nM
  concentration at 4 h: 2460 nM
  concentration at 5 h: 2040 nM
  concentration at 6 h: 1870 nM
  concentration at 8 h: 1690 nM
  concentration at 10 h: 1460 nM
  concentration at 12 h: 1210 nM
  concentration at 36 h: 372 nM
  concentration at 48 h: 230 nM
  concentration at 72 h: 65.1 nM
  concentration at 96 h: 23.8 nM
[9]
  concentration at 0.5 h: 304 nM
  concentration at 1 h: 771 nM
  concentration at 1.5 h: 958 nM
  concentration at 2 h: 1000 nM
  concentration at 2.5 h: 1200 nM
  concentration at 3 h: 1050 nM
  concentration at 4 h: 936 nM
  concentration at 5 h: 905 nM
  concentration at 6 h: 930 nM
  concentration at 8 h: 1100 nM
  concentration at 10 h: 1040 nM
  concentration at 12 h: 959 nM
  concentration at 36 h: 223 nM
  concentration at 48 h: 134 nM
  concentration at 72 h: 46.3 nM
  concentration at 96 h: 11.9 nM
[10]
  concentration at 0.5 h: 1150 nM
  concentration at 1 h: 2120 nM
  concentration at 1.5 h: 2220 nM
  concentration at 2 h: 2130 nM
  concentration at 2.5 h: 2200 nM
  concentration at 3 h: 2070 nM
  concentration at 4 h: 2020 nM
  concentration at 5 h: 1840 nM
  concentration at 6 h: 1650 nM
  concentration at 8 h: 1740 nM
  concentration at 10 h: 1530 nM
  concentration at 12 h: 1320 nM
  concentration at 36 h: 383 nM
  concentration at 48 h: 247 nM
  concentration at 72 h: 74.2 nM
  concentration at 96 h: 32.3 nM
80 mg, BI 187004 plasma concentrations, 80 mg single oral, planned time 24 h, Max
  concentration at 24 h: 1560 nM
80 mg, BI 187004 plasma concentrations, 80 mg single oral, planned time 24 h, Mean
  concentration at 24 h: 927 nM
80 mg, BI 187004 plasma concentrations, 80 mg single oral, planned time 24 h, Median
  concentration at 24 h: 812 nM
80 mg, BI 187004 plasma concentrations, 80 mg single oral, planned time 24 h, Min
  concentration at 24 h: 605 nM
80 mg, BI 187004 plasma concentrations, 80 mg single oral, planned time 24 h, gMean
  concentration at 24 h: 878 nM
80 mg, C24 gMean (%gCV), 80 mg single oral dose
  concentration at 24 h: 878 nM
160 mg
  AUC(0-inf): 111 µM·h
  AUC(0-t): 82.1 µM·h
  Cmax: 8310 nM
  Tmax: 1 h
  Vd/F: 87.9 L
  half-life: 14.5 h
[11]
  concentration at 0.5 h: 8780 nM
  concentration at 1 h: 8740 nM
  concentration at 1.5 h: 8830 nM
  concentration at 2 h: 8640 nM
  concentration at 2.5 h: 8030 nM
  concentration at 3 h: 7450 nM
  concentration at 4 h: 6750 nM
  concentration at 5 h: 5220 nM
  concentration at 6 h: 5320 nM
  concentration at 8 h: 4580 nM
  concentration at 10 h: 4290 nM
  concentration at 12 h: 3640 nM
[12]
  concentration at 0.5 h: 6380 nM
  concentration at 1 h: 7260 nM
  concentration at 1.5 h: 7280 nM
  concentration at 2 h: 7070 nM
  concentration at 2.5 h: 6730 nM
  concentration at 3 h: 5950 nM
  concentration at 4 h: 5800 nM
  concentration at 5 h: 4870 nM
  concentration at 6 h: 4340 nM
  concentration at 8 h: 3720 nM
  concentration at 10 h: 3090 nM
  concentration at 12 h: 2990 nM
[13]
  concentration at 0.5 h: 6830 nM
  concentration at 1 h: 7640 nM
  concentration at 1.5 h: 7380 nM
  concentration at 2 h: 6790 nM
  concentration at 2.5 h: 6550 nM
  concentration at 3 h: 5800 nM
  concentration at 4 h: 5790 nM
  concentration at 5 h: 4900 nM
  concentration at 6 h: 4230 nM
  concentration at 8 h: 3740 nM
  concentration at 10 h: 3040 nM
  concentration at 12 h: 2910 nM
[14]
  concentration at 0.5 h: 2520 nM
  concentration at 1 h: 3920 nM
  concentration at 1.5 h: 5190 nM
  concentration at 2 h: 6360 nM
  concentration at 2.5 h: 6070 nM
  concentration at 3 h: 5330 nM
  concentration at 4 h: 5060 nM
  concentration at 5 h: 4420 nM
  concentration at 6 h: 3430 nM
  concentration at 8 h: 2580 nM
  concentration at 10 h: 1940 nM
  concentration at 12 h: 2710 nM
[15]
  concentration at 0.5 h: 5860 nM
  concentration at 1 h: 7040 nM
  concentration at 1.5 h: 7190 nM
  concentration at 2 h: 7030 nM
  concentration at 2.5 h: 6700 nM
  concentration at 3 h: 5910 nM
  concentration at 4 h: 5770 nM
  concentration at 5 h: 4860 nM
  concentration at 6 h: 4290 nM
  concentration at 8 h: 3670 nM
  concentration at 10 h: 3000 nM
  concentration at 12 h: 2970 nM
[16]
  concentration at 1.5 h: 7480 nM
  concentration at 2 h: 7230 nM
  concentration at 2.5 h: 6930 nM
  concentration at 3 h: 5470 nM
  concentration at 4 h: 5230 nM
  concentration at 5 h: 4420 nM
  concentration at 6 h: 4030 nM
  concentration at 8 h: 3650 nM
  concentration at 12 h: 2710 nM
160 mg, BI 187004 plasma concentrations, 160 mg single oral, planned time 24 h, Max
  concentration at 24 h: 2690 nM
160 mg, BI 187004 plasma concentrations, 160 mg single oral, planned time 24 h, Mean
  concentration at 24 h: 1680 nM
160 mg, BI 187004 plasma concentrations, 160 mg single oral, planned time 24 h, Median
  concentration at 24 h: 1490 nM
160 mg, BI 187004 plasma concentrations, 160 mg single oral, planned time 24 h, Min
  concentration at 24 h: 1360 nM
160 mg, BI 187004 plasma concentrations, 160 mg single oral, planned time 24 h, gMean
  concentration at 24 h: 1630 nM
160 mg, BI 187004 plasma concentrations, 160 mg single oral, planned time 24 h, individual subjects
  concentration at 24 h: 1360 nM
